Laboratory results as given in paper PMC10242237 (Scientific Reports, 2023).
Like-named read-outs stand apart in the source and are kept apart here.

What was measured:
SARS-CoV-2 PL^pro [1] = target: T1, SARS-CoV-2 PL^pro (Severe acute respiratory syndrome coronavirus 2, UniProt P0DTD1); test: biochemical; conditions: for inhibition at 1 µM: 0.5 h, read-out: inhibition [%] SARS-CoV-2 PLpro
SARS-CoV-2 M^pro = SARS-CoV-2 M^pro (Severe acute respiratory syndrome coronavirus 2, UniProt P0DTD1); test: biochemical; conditions: for inhibition at 0.1 µM: read-out: inhibition [%] SARS-CoV-2 Mpro, [I] = 100 nM; for inhibition at 1 µM: read-out: inhibition [%] SARS-CoV-2 Mpro, [I] = 1 µM
[2] = target: SARS-CoV-2 nsp14 N7-MTase (Severe acute respiratory syndrome coronavirus 2, UniProt P0DTD1); test: Py-FLINT fluorescence assay of nsp14 N7-MTase; format: biochemical; conditions: for SARS-CoV-2 nsp14 Hill coefficient p: four-parameter dose-response fit, variable Hill slope
Experimental: To determine their IC50 values, we used the previously described fluorescence assay Py-FLINT[42],[67]. To this end, the Py-FLINT probe (1 μM) was incubated with SAM cosubstrate (20 μM), nsp14 enzyme (40 nM), and half-log inhibitor dilutions in 50 mM Tris–HCl pH 7.5 buffer at 30 °C. The reaction progress was monitored in 96-well cells by registering the fluorescence intensity signal with a 1-min time interval. Using the initial reaction course, the values of initial rates V were calculated. To calculate IC50 values from the obtained dependences of initial rates versus inhibitor concentration, we fitted a four-parameter dose–response equation, assuming a variable Hill slope p (Table 3, Fig. S2).
The Py-FLINT probe (1 μM) was incubated with SAM cosubstrate (20 μM), nsp14 (40 nM), and an inhibitor (half-log dilutions logCinh < − 2.5; 2 >). […] Initial rates V were calculated by fitting a linear curve to the first 10 points (10 min). To the obtained dependences V(Cinh) the following four-parameter dose–response equation was fitted:1 V/V0=A1+A2-A1/1+Cinh/IC50^p, where A1 and A2 are the bottom and top asymptotes, respectively; Cinh the inhibitor concentration; p is the Hill coefficient, and V/V0 is the ratio of the initial reaction rate with the inhibitor to that without the inhibitor. For curve fitting and IC50 calculations we used GraphPad Prism software.

A549 human cell line = conditions: cited from earlier work
Vero E6 cells = test: Cytotoxicity assay (XTT) in Vero E6 cells; format: cell-based; conditions: Vero E6 cells, three days, XTT
Experimental: (§1) Cytotoxicity was evaluated by incubating two-fold serial dilutions of each compound with Vero E6 cells.

SARS-CoV-2 [3] = test: Cytopathic effect (CPE)-based anti-SARS-CoV-2 assay in Vero E6 cells; conditions: read-out: EC50 CPE, three days, XTT
SARS-CoV-2 [4] = test: RNA reduction-based anti-SARS-CoV-2 assay (RT-qPCR) in Vero E6 cells; conditions: read-out: EC50 RNA, two days, RT-qPCR of medium
[5] = Cytotoxicity assay (XTT) in Vero E6 cells; format: cell-based; conditions: African green monkey
Experimental: as §1

M^pro [6] = conditions: Protease-Glo luciferase and Flip-GFP assays; cited from earlier work
M^pro [7] = conditions: in vitro FRET substrate assay, recombinant enzyme; cited from earlier work
SARS-CoV-2 PL^pro [8] = target: T1, SARS-CoV-2 PL^pro; conditions: Flip-GFP assay, 293T-ACE2 cells; cited from earlier work
[9] = phase I clinical trial, humans; cited from earlier work
[10] = [E] = 100 nM, [I] = 1 µM, [S] = 10 µM

Compound | inhibition at 1 µM (SARS-CoV-2 PL^pro [1]) [%] | inhibition at 0.1 µM (SARS-CoV-2 M^pro) [%] | inhibition [%] SARS-CoV-2 PLpro (SARS-CoV-2 PL^pro [1]; [10]) [%] | inhibition at 1 µM (SARS-CoV-2 M^pro) [%] | EC50 (SARS-CoV-2 [3]) [µM] | other results
O=c1c2ccccc2[se]n1-c1ccccc1F [Compound 1] | 54.6 ± 2 | 72.3 ± 2.3 | – | – | – | –
O=c1c2ccccc2[se]n1-c1ccccc1Cl [Compound 2] | 56.7 ± 4.1 | 66.5 ± 3.4 | – | – | – | –
O=c1c2ccccc2[se]n1-c1ccccc1Br [Compound 3] | 59.2 ± 4.5 | 73.3 ± 4.5 | – | – | – | SARS-CoV-2 nsp14 Hill coefficient p [2]: 3.12 ± 0.47
Cc1ccccc1-n1[se]c2ccccc2c1=O [Compound 4] | – | 63.4 ± 2.7 | 55.8 ± 5.2 | – | – | –
O=c1c2ccccc2[se]n1-c1ccccc1C(F)(F)F [Compound 5] | – | 62.8 ± 0.7 | 44.4 ± 2.5 | – | – | –
O=c1c2ccccc2[se]n1-c1ccccc1[N+](=O)[O-] [Compound 6] | – | 38.5 ± 2.3 | 46.6 ± 2.3 | – | – | –
O=c1c2ccccc2[se]n1-c1ncccc1O [Compound 7, 2-(3-hydroxypyridin-2-yl)-1,2-benzisoselenazol-3(2H)-one] | 84.4 ± 2.1 | 55.9 ± 4.1 | – | – | – | SARS-CoV-2 nsp14 Hill coefficient p [2]: 4.08 ± 1.33; melting point: 228 to 229 °C (dec.)
COc1cccc(-n2[se]c3ccccc3c2=O)c1 [Compound 8] | 52.6 ± 1.4 | 59.9 ± 4.8 | – | – | – | –
O=c1c2ccccc2[se]n1-c1ccc(C(F)(F)F)cc1 [Compound 9] | 48 ± 3.6 | 71 ± 9.3 | – | – | – | –
O=c1c2ccccc2[se]n1-c1ccc([N+](=O)[O-])cc1 [Compound 10] | 56.2 ± 4.2 | 82.9 ± 1.7 | – | – | – | SARS-CoV-2 nsp14 Hill coefficient p [2]: 1.73 ± 0.35
O=c1c2ccccc2[se]n1-c1ccc(I)cc1 [Compound 11] | 48 ± 2.1 | 71.6 ± 5.6 | – | – | – | melting point: 203 to 204 °C
CC(=O)c1ccc(-n2[se]c3ccccc3c2=O)cc1 [Compound 12] | – | 55.1 ± 2.7 | 59.0 ± 3.0 | – | – | –
CC(=O)Nc1ccc(-n2[se]c3ccccc3c2=O)cc1 [Compound 13] | 57.3 ± 1.8 | 62 ± 1 | – | – | – | –
O=c1c2ccccc2[se]n1-c1ccc(F)cc1F [Compound 14] | – | 64.8 | 58.1 ± 3.9 | – | – | –
O=c1c2ccccc2[se]n1-c1ccc(Cl)cc1F [Compound 15] | – | 77.1 ± 2.8 | 55.7 ± 3.1 | – | – | –
COc1ccc(-n2[se]c3ccccc3c2=O)c(OC)c1 [Compound 16] | 64.3 ± 3.8 | 59 ± 1.5 | – | – | – | SARS-CoV-2 nsp14 Hill coefficient p [2]: 2.36 ± 0.32; melting point: 238 to 240 °C; toxicity in A549 cells, times lower in comparison with ebselen (A549 human cell line): 10 times
O=c1c2ccccc2[se]n1-c1cc(Cl)ccc1F [Compound 17, 2-(5-chloro-2-fluorophenyl)-1,2-benzisoselenazol-3(2H)-one] | 47.2 ± 1 | 82.3 ± 2.1 | – | – | – | SARS-CoV-2 nsp14 Hill coefficient p [2]: 2.15 ± 0.28
O=c1c2ccccc2[se]n1-c1cc(Cl)ccc1Cl [Compound 18] | – | 72.3 ± 3.1 | 47.8 ± 0.9 | – | – | –

Compound | inhibition at 1 µM (SARS-CoV-2 PL^pro [1]) [%] | inhibition at 0.1 µM (SARS-CoV-2 M^pro) [%] | inhibition [%] SARS-CoV-2 PLpro (SARS-CoV-2 PL^pro [1]; [10]) [%] | inhibition at 1 µM (SARS-CoV-2 M^pro) [%] | EC50 (SARS-CoV-2 [3]) [µM] | other results
Cc1ccc(Cl)c(-n2[se]c3ccccc3c2=O)c1 [Compound 19] | – | 61.8 ± 0.5 | 57.6 ± 3.0 | – | – | –
Cc1ccc(Cl)cc1-n1[se]c2ccccc2c1=O [Compound 20] | 62.6 ± 1.7 | 69 ± 3.5 | – | – | – | –
Cc1c(Cl)cccc1-n1[se]c2ccccc2c1=O [Compound 21] | 58.3 ± 2.4 | 70.6 ± 1.4 | – | – | – | melting point: 282 to 283 °C
Cc1cc(-n2[se]c3ccccc3c2=O)ccc1Cl [Compound 22] | 43.1 ± 2.1 | 72.2 ± 0.8 | – | – | – | –
COc1ccc(-n2[se]c3ccccc3c2=O)cc1OC [Compound 23] | 58 ± 1.9 | 60.6 ± 0.4 | – | – | – | –
O=C(Nc1ccccc1F)c1ccccc1[Se][Se]c1ccccc1C(=O)Nc1ccccc1F [Compound 25] | – | 33 ± 5.5 | 82.1 ± 2.7 | 100 | 3.1 ± 0.36 | IC50 [2]: 0.12 ± 0.01 µM; CC50 (Vero E6 cells): ~60 µM; EC50 (SARS-CoV-2 [4]): 1.9 ± 0.15 µM
O=C(Nc1ccccc1C(F)(F)F)c1ccccc1[Se][Se]c1ccccc1C(=O)Nc1ccccc1C(F)(F)F [Compound 26] | – | 34.5 ± 4.4 | 61.3 ± 2.2 | 78.1 ± 2.4 | 37 ± 2.4 | IC50 [2]: 1.82 ± 0.32 µM; CC50 (Vero E6 cells): > 50 µM
O=C(Nc1cccc(F)c1)c1ccccc1[Se][Se]c1ccccc1C(=O)Nc1cccc(F)c1 [Compound 27, bis[2-(3-fluorophenylcarbamoyl)]phenyl diselenide] | – | 44 ± 4.1 | 90.1 ± 5.4 | 100 | 0.7 ± 0.13 | IC50 [2]: 0.18 ± 0.04 µM; CC50 (Vero E6 cells): > 50 µM; EC50 (SARS-CoV-2 [4]): 1.5 ± 0.15 µM
COc1cccc(NC(=O)c2ccccc2[Se][Se]c2ccccc2C(=O)Nc2cccc(OC)c2)c1 [Compound 28] | – | 37 ± 4.3 | 81.9 ± 0.8 | 100 | 7.6 ± 0.71 | IC50 [2]: 0.58 ± 0.04 µM; CC50 (Vero E6 cells): > 50 µM; EC50 (SARS-CoV-2 [4]): 2.7 ± 0.23 µM
O=C(Nc1ccc(C(F)(F)F)cc1)c1ccccc1[Se][Se]c1ccccc1C(=O)Nc1ccc(C(F)(F)F)cc1 [Compound 29] | – | 14 ± 2.4 | 61.3 ± 3.4 | 100 | 29 ± 3.5 | IC50 [2]: 4.5 ± 1.3 µM; CC50 (Vero E6 cells): > 50 µM
O=C(Nc1ccc(Cl)cc1F)c1ccccc1[Se][Se]c1ccccc1C(=O)Nc1ccc(Cl)cc1F [Compound 30] | – | 27.4 | 75.1 ± 0.4 | 49.6 ± 2.7 | 1.1 ± 0.15 | IC50 [2]: 11.5 ± 1.4 µM; CC50 (Vero E6 cells): > 50 µM; EC50 (SARS-CoV-2 [4]): 1.9 ± 0.1 µM
COc1ccc(NC(=O)c2ccccc2[Se][Se]c2ccccc2C(=O)Nc2ccc(OC)cc2OC)c(OC)c1 [Compound 31] | – | 50 ± 1 | 76.6 ± 2.4 | 100 | 7.1 ± 0.84 | IC50 [2]: 0.91 ± 0.1 µM; CC50 (Vero E6 cells): > 50 µM; EC50 (SARS-CoV-2 [4]): 2.8 ± 0.31 µM
Cc1ccc(Cl)cc1NC(=O)c1ccccc1[Se][Se]c1ccccc1C(=O)Nc1cc(Cl)ccc1C [Compound 32] | – | 55.4 ± 3.8 | 72.4 ± 1.7 | 100 | 22 ± 2.5 | IC50 [2]: 12.1 ± 1.1 µM; CC50 (Vero E6 cells): > 50 µM
Cc1cc(NC(=O)c2ccccc2[Se][Se]c2ccccc2C(=O)Nc2ccc(Cl)c(C)c2)ccc1Cl [Compound 33] | – | 48.7 ± 5.4 | 72.1 ± 3.2 | 92 ± 0.3 | 20 ± 1.4 | IC50 [2]: 1.06 ± 0.05 µM; CC50 (Vero E6 cells): > 50 µM; EC50 (SARS-CoV-2 [4]): 1.7 ± 0.08 µM
O=C(Nc1c(F)cccc1Cl)c1ccccc1[Se][Se]c1ccccc1C(=O)Nc1c(F)cccc1Cl [Compound 34] | – | 32 ± 2.1 | 60.2 ± 1.7 | 43.1 ± 3 | 9.3 ± 0.92 | IC50 [2]: 2.1 ± 0.58 µM; CC50 (Vero E6 cells): > 50 µM; EC50 (SARS-CoV-2 [4]): 3.4 ± 0.2 µM
O=c1c2ccccc2[se]n1-c1ccccc1 [Ebselen, 2-phenylbenzisoselenazol-3(2H)-one, reference compound] | – | – | – | 100 | 34 ± 7.9 | inhibition at 1 µM (SARS-CoV-2 PL^pro [1]; [10]): 65.4 ± 2.4%; inhibition at 0.1 µM (SARS-CoV-2 M^pro; [E] = 100 nM, [I] = 100 nM, [S] = 50 µM): 57.6 ± 1.3%; SARS-CoV-2 nsp14 Hill coefficient p [2]: 2.74 ± 0.47; CC50 at 3 days [5]: ~30 µM; M^pro inhibition in cells (M^pro [6]): no M^pro inhibition; M^pro inhibition in presence of reducing agent (M^pro [7]): does not inhibit; SARS-CoV-2 PL^pro inhibition in cells (SARS-CoV-2 PL^pro [8]): no SARS-CoV-2 PL^pro inhibition; tolerated single dose [9]: 1600 mg
CCC(CC)COC(=O)[C@H](C)N[P@](=O)(OC[C@H]1O[C@@](C#N)(c2ccc3c(N)ncnn23)[C@H](O)[C@@H]1O)Oc1ccccc1 [Remdesivir, reference compound] | – | – | – | – | 0.1 ± 0.01 | CC50 at 3 days ([5]; Vero E6 cells, three days, XTT, read-out: CC50): > 50 µM; EC50 (SARS-CoV-2 [4]): 0.66 ± 0.06 µM
